Source: paper PMC3074252 (Journal of medicinal chemistry, 2011)
Like-named read-outs stand apart in the source and are kept apart here.

Experiments:
[1] = test system: PC12 cells expressing G93A SOD1-YFP; type: cell-based
[2] = test system: 68 in vitro radioligand binding assays; conditions: 10 μM, in duplicate, 68 assays
[3] = Sprague-Dawley rats, in PBS
[4] = mice, 50 mg/kg peritoneally, 1 h after injection
in vivo = conditions: Sprague-Dawley, rat, iv, 1 mg/kg
G85R SOD1 = assay: High content G85R-SOD1 aggregation assay; type: cell-based

SMILES | activity in cytotoxicity protection assay [1] | other results
CCCCN1C(=O)CC(=O)NC1=O [Compound 1, 1-Butylpyrimidine-2,4,6(1H,3H,5H)-trione] | no activity | 
O=C1CC(=O)N(C2CCCCC2)C(=O)N1 [Compound 2, 1-Cyclohexylpyrimidine-2,4,6(1H,3H,5H)-trione] | no activity | 
O=C1CC(=O)N(CCc2ccccc2)C(=O)N1CCc1ccccc1 [Compound 7, 1,3-Diphenethylpyrimidine-2,4,6(1H,3H,5H)-trione] |  | inhibitory effect across profiling screen [2]: No significant inhibitory effect; AUC/Dose ([3]; 1 mg/kg i.v.): 126 ng · h/mL/dose; AUC/Dose ([3]; 1 mg/kg p.o.): 124 ng · h/mL/dose; blood level [4]: 150 µM; brain level [4]: 50 µM; clearance (in vivo): 7.98 L/h/kg; reduction in aggregates, fluorescence images (G85R SOD1; cells treated with MG132 plus 10 μM compound): significant reduction in aggregates; reduction in the number of aggregates of G85R SOD1 (G85R SOD1; dose dependence): concentration dependent
O=C1CC(=O)N(CCN2CCOCC2)C(=O)N1CCc1ccc(F)cc1 [Compound 34, 1-(4-Fluorophenethyl)-3-(2-morpholinoethyl)pyrimidine-2,4,6(1H,3H,5H)-trione] | inactive | 
O=c1cc(Cl)n(CCc2ccccc2)c(=O)n1CCc1ccccc1 [Compound 46, 6-chloro-1,3-diphenethylpyrimidine-2,4(1H,3H)-dione] | inactive | 
COc1cc(=O)n(CCc2ccccc2)c(=O)n1CCc1ccccc1 [Compound 47, 6-methoxy-1,3-diphenethylpyrimidine-2,4(1H,3H)-dione] | inactive | 
O=C1C(=O)N(CCc2ccccc2)C(=O)N1CCc1ccccc1 [Compound 49, 1,3-Diphenethylimidazolidine-2,4,5-trione] | none was active | 
O=C1C(=O)N(C2CCCCC2)C(=O)N1C1CCCCC1 [Compound 51, 1,3-Dicyclohexylimidazolidine-2,4,5-trione] | none was active | 
O=C1CCC(=O)N(CCc2ccccc2)C(=O)N1CCc1ccccc1 [Compound 52, 1,3-Diphenethyl-1,3-diazepane-2,4,7-trione] | none was active | 
